Assay results: patent publication US4568687A, “N-[2-4-(1H-Imidazol-1-yl)alkyl]-arylamides and pharmaceutical compositions” (American Cyanamid Company, priority 1984, dated 1986)
Where a name gives a salt, the structure may show the parent alone.

The molecules below were run against T1, thromboxane synthetase (Rattus norvegicus, UniProt P49430) (assay: Inhibition of thromboxane (TXB2) formation in washed rat platelets, TXB2 by direct radioimmunoassay). Conditions: 10 min; Dose 10^-4 (unit inferred); SHR platelet suspension, 10 minutes at 37° C.
T1 construct: The platelets were isolated by centrifuging the PRP for 10 minutes; endogenous in cells; host or cells: washed platelets from arterial blood of Okamoto-Aoki spontaneously hypertensive rats (rats from Taconic Farms)
T1 sequence (P49430 1-533): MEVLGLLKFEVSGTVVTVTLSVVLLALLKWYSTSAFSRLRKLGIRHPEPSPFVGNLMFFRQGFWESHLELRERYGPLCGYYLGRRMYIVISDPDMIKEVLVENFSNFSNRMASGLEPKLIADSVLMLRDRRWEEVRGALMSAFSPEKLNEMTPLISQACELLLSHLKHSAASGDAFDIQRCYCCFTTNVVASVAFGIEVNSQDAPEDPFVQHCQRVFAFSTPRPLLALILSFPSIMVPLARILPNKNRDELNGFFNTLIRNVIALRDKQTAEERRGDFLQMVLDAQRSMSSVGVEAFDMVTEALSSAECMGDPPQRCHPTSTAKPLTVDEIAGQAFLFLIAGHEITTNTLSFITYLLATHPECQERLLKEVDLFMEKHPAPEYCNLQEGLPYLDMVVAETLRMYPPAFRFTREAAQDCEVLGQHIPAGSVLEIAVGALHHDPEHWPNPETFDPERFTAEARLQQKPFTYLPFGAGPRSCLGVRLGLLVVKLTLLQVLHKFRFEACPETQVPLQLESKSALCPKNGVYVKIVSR
Type: cell-based, Okamoto-Aoki spontaneously hypertensive rats (SHR)
Description: Under urethan anesthesia, […] of arterial blood was collected in one ml. of 3.2% sodium citrate in a polystyrene tube from Okamoto-Aoki spontaneously hypertensive rats (SHR) (Taconic Farms, Germantown, NY) between 19 and 24 weeks in age. The blood was diluted with 3 ml. cold saline and centrifuged at room temperature for 15 minutes at 460×g. The platelet rich plasma (PRP) was separated. The platelets were isolated by centrifuging the PRP for 10 minutes at 1060×g and were washed in 4 ml. cold oxygenated Krebs phosphate buffer, pH 7.4. The chilled patelets recovered from centrifuging at 800×g for 10 minutes were resuspended in oxygenated Krebs phosphate buffer and diluted to contain 4.5-6.0×10^4 platelets/μl.
The inhibition of thromboxane (TX) formation was studied by determining the […] of thromboxane B2 (TXB2), the stable hydrolysis product of TXA2. Assay samples, prepared on ice, contained 200 μl platelet suspension, 50 μl saline, and 50 μl vehicle or drug under study (OKY-1581, UK-37248-01, 1-benzylimidazole, or indomethacin). The samples were incubated for 10 minutes at 37° C. in a metabolic shaker. The reaction was terminated by immersing the tubes in an ice bath and adding 50 μl of 0.5M citric acid. The samples were centrifuged for 10 minutes in a refrigerated centrifuge and the supernatants thus obtained were decanted and stored at -20° C. The TXB2 content for each sample was determined by a direct radioimmunoassay (RIA) utilizing a TXB2 specific RIA kit purchased from New England Nuclear, Boston, MA and expressed as pg TXB2 formed minute^-1 sample^-1, from which the percent inhibition of TXB2 formation was calculated.

inhibition at 100 µM [%]	SMILES
86.2	O=C(COc1ccccc1)NCCCn1ccnc1 [N-[3-(1H-Imidazol-1-yl)propyl]-2-phenoxyacetamide]
84.6	O=C(COc1ccc(Cl)cc1)NCCCn1ccnc1 [2-(4-chlorophenoxy)-N--[3-(1H--imidazol-1-yl)propyl]acetamide]
79.7	O=C(NCCCn1ccnc1)C(=O)c1ccccc1 [N-[3-(1H-Imidazol-1-yl)propyl]-α-oxo-benzeneacetamide, fumarate]
100	O=C(NC(CCn1ccnc1)c1ccccc1)c1ccc(Br)cc1 (centres unmarked) [4-bromo-N--[3-(1H--imidazol-1-yl)-1-phenylpropyl]benzamide]
84	O=C(NCCCn1ccnc1)C(c1ccccc1)c1ccccc1 [N-[3-(1H-imidazol-1-yl)propyl]diphenylacetamide]
100	O=C(NCCCCn1ccnc1)c1ccc(Cl)c(Cl)c1 [3,4-Dichloro-N-[4-(1H-imidazol-1-yl)butyl]benzamide]
101	COc1cc(C(=O)NCCCn2ccnc2)cc(OC)c1OC [N--[3-(1H--imidazol-1-yl)propyl]-3,4,5-trimethoxybenzamide]
80.1	CS(=O)(=O)c1ccc(C(=O)NCCCn2ccnc2)cc1 [N--[3-(1H--imidazol-1-yl)propyl]-4-(methylsulfonyl)benzamide]
99.7	O=C(NCCCn1ccnc1)c1ccccc1Cl [2-chloro-N--[3-(1H--imidazol-1-yl)propyl]benzamide]
91	CC(CCNC(=O)c1ccc(Br)cc1)n1ccnc1 (centres unmarked) [4-bromo-N--[3-(1H--imidazol-1-yl)butyl]benzamide]
86	CCNc1ccccc1C(=O)NCCCn1ccnc1 [2-ethylamino-N--[3-(1H--imidazol-1-yl)propyl]benzamide]
92	O=C1c2ccccc2C(=O)N1CCCCCn1ccnc1 [2-[5-(1H--imidazol-1-yl)pentyl]-1H--isoindole-1,3(2H)--dione]
90.7	N#Cc1ccc(C(=O)NCCCn2ccnc2)cc1 [4-cyano-N--[3-(1H--imidazol-1-yl)propyl]benzamide]
95.8	O=C(NCCCn1ccnc1)c1cccc(F)c1 [3-fluoro-N--[3-(1H--imidazol-1-yl)propyl]benzamide]
106	O=C(NCCCn1ccnc1)c1ccc(-c2ccccc2)cc1 [N--[3-(1H--imidazol-1-yl)propyl][1,1'-biphenyl]-4-carboxamide]
83.2	Cc1ccc(C(=O)NCCCn2ccnc2)cc1 [N--[3-(1H--imidazol-1-yl)propyl]-4-methylbenzamide]
66	O=C(NCCCn1cnc(-c2ccccc2)c1)c1ccc(Br)cc1 [4-Bromo-N-[3-(4-phenyl-1H-imidazol-1-yl)propyl]benzamide]
57	CNc1ccccc1C(=O)NCCCn1ccnc1 [N--[3-(1H--imidazol-1-yl)propyl]-2-methylaminobenzamide]
100	O=C(NC(CCn1ccnc1)c1ccccc1)c1ccc(Cl)cc1 (centres unmarked) [4-chloro-N--[3-(1H--imidazol-1-yl)-1-phenylpropyl]benzamide]
98.7	CC(=O)Nc1ccc(C(=O)NCCCn2ccnc2)cc1 [4-(acetylamino)-N--[3-(1H--imidazol-1-yl)propyl]benzamide]
84	O=C(NCCCn1ccnc1)c1cccc(C(F)(F)F)c1 [3-trifluoromethyl-N--[3-(1H--imidazol-1-yl)propyl]benzamide]

inhibition at 100 µM [%]	SMILES
88.9	COc1ccc(C(=O)NCCCn2ccnc2)cc1 [N--[3-(1H--imidazol-1-yl)propyl]-4-methoxybenzamide]
99	Cc1cn(CCCNC(=O)c2ccc(I)cc2)cn1 [4-iodo-N--[3-(4-methyl-1H--imidazol-1-yl)propyl]benzamide]
100	O=C(NCCCn1ccnc1)C1c2ccccc2-c2ccccc21 [N--[3-(1H--imidazol-1-yl)propyl]-9H--fluorene-9-carboxamide]
100	O=C(COc1cccc(Cl)c1Cl)NCCCn1ccnc1 [2-(2,3-dichlorophenoxy)-N--[3-(1H--imidazol-1-yl)propyl]acetamide, fumarate]
96	CC(CCNC(=O)c1ccc(Cl)cc1)n1ccnc1 (centres unmarked) [4-chloro-N--[3-(1H--imidazol-1-yl)butyl]benzamide]
89.5	CC(=O)c1ccc(C(=O)NCCCn2ccnc2)cc1 [4-acetyl-N--[3-(1H--imidazol-1-yl)propyl]benzamide]
76	Cc1ccc(CC(=O)NCCCn2cnc(C)c2)cc1 [4-methyl-N--[3-(4-methyl-1H--imidazol-1-yl)propyl]phenylacetamide]
96.7	O=C(NCCCn1ccnc1)c1ccc(I)cc1 [N--[3-(1H--imidazol-1-yl)propyl]-4-iodobenzamide]
83.9	O=C(NCCCn1ccnc1)c1ccccc1F [2-fluoro-N--[3-(1H--imidazol-l-yl)propyl]benzamide]
58.5	O=C(NCCn1ccnc1)c1ccc(Cl)c(Cl)c1 [3,4-dichloro-N--[2-(1H--imidazol-1-yl)ethyl]benzamide]
87.1	O=C(NCCCn1ccnc1)c1ccc(F)cc1 [4-fluoro-N--[3-(1H--imidazol-1-yl)propyl]benzamide]
95	O=C(NCCCCn1ccnc1)c1cccc2ccccc12 [N--[4-(1H--imidazol-1-yl)butyl]-naphthalene-1-carboxamide]
103	O=C(NCCCn1ccnc1)c1ccc(C(=O)c2ccccc2)cc1 [4-benzoyl-N--[3-(1H--imidazol-1-yl)propyl]benzamide]
93	Cc1cn(CCCNC(=O)c2cccc(Br)c2)cn1 [3-bromo-N--[3-(4-methyl-1H--imidazol-1-yl)propyl]benzamide]
100	CC(CNC(=O)c1ccc(Cl)cc1)Cn1ccnc1 (centres unmarked) [4-chloro-N--[3-(1H--imidazol-1-yl)-2-methylpropyl]benzamide fumarate]
102	CSc1ccc(C(=O)NCCCn2ccnc2)cc1 [N--[3-(1H--imidazol-1-yl)propyl]-4-(methylthio)-benzamide]
93	CN(C)c1ccc(C(=O)NCCCn2ccnc2)cc1 [N--[3-(1H--imidazol-1-yl)propyl]-4-(dimethylamino)benzamide]
92.7	O=C(NCCCn1ccnc1)c1ccc(Cl)c(Cl)c1 [3,4-dichloro-N--[3-(1H--imidazol-1-yl)propyl]benzamide]
53.1	O=C(Cc1ccc(F)cc1)NCCCn1ccnc1 [4-fluoro-N--[3-(1H--imidazol-1-yl)propyl]benzeneacetamide, fumarate]
93	CC(CCNC(=O)c1cccc(Cl)c1)n1ccnc1 (centres unmarked) [3-chloro-N--[3-(1H--imidazol-1-yl)butyl]benzamide]
